Measured values: patent publication US9427438B2, “Compositions and methods for treating Alzheimer's disease” (EIP Pharma, LLC, priority 2011, dated 2016)

Experiments:
[1] = tested on: p38 MAPK; details: neurons preincubated in vitro; cited from earlier work
[2] = tested on: Alzheimer's disease (AD) transgenic Tg2576 mouse model; experiment: Amyloid plaque load by Aβ immunohistochemistry after 2-week oral treatment of Tg2576 mice; assay type: in vivo; details: Tg2576 mice aged 26 months, 3 mg/kg BID oral, 2 weeks
[3] = tested on: IL-1β; experiment: IL-1β ELISA of brain tissue of treated Tg2576 mice; assay type: in vivo, mouse; details: 3 mg/kg BID, 2 weeks, soluble dorsal cortex fraction
[4] = cited from earlier work
[5] = tested on: rodent arthritis models; details: cited from earlier work
[6] = tested on: arthritis model; details: 10 mg/kg dose, reference compound; cited from earlier work
[7] = tested on: osteoarthritis model; details: rats, 50 mg/kg; cited from earlier work
[8] = tested on: hyperalgesia model; details: cited from earlier work
[9] = animals; cited from earlier work
[10] = dogs; cited from earlier work
[11] = cited from earlier work; remark: listed apart in the source
[12] = high doses; cited from earlier work

| SMILES | blocking of the enhancement of MAPT phosphorylation [1] | decrease of amyloid plaque area in the cortex as compared with vehicle ([2]; cortex) [%] | mean amyloid plaque area, cortex ([2]; cortex (vehicle control 27.7%)) [%] | decrease of amyloid plaque area in the hippocampus as compared with vehicle ([2]; hippocampus) [%] | mean amyloid plaque area, hippocampus ([2]; hippocampus (vehicle control 13.6%)) [%] | IL-1β levels compared to wild-type or control animals [3] | adverse events in rheumatoid arthritis patients ([4]; 250 mg b.i.d., humans) | adverse neurological effects in humans [4] | therapeutically effective unit dose for the treatment of rheumatoid arthritis ([4]; humans) [mg] | anti-inflammatory activity [5] | inhibition of paw swelling [6] | inhibition of knee degeneration compared to control animals [7] | effect on hyperalgesia at the lowest dose ([8]; 3 mg/kg dose) | inhibition of hyperalgesic response ([8]; rats, doses of 30 mg/kg, 10 mg/kg and 3 mg/kg) | blood brain barrier penetration [9] | brain levels relative to systemic levels [10] | plasma protein binding [11] | adverse neurological effects in animals [12] |
| --- | --- | --- | --- | --- | --- | --- | --- | --- | --- | --- | --- | --- | --- | --- | --- | --- | --- | --- |
| C[S+]([O-])c1ccc(-c2nc(-c3ccc(F)cc3)c(-c3ccncc3)[nH]2)cc1 (stereo not drawn) [SB203580] | could be blocked | – | – | – | – | – | – | – | – | – | – | – | – | – | – | – | – | – |
| O=c1ncn2nc(Sc3ccc(F)cc3F)ccc2c1-c1c(Cl)cccc1Cl [VX-745] | – | 32.5 | 18.7 | 61.8 | 5.2 | no increases in IL-1β levels | adverse events, including gastrointestinal effects such as diarrhea and abdominal pain, and elevations in liver transaminases | not observed in humans | 250 | significant anti-inflammatory activity | not as effective at inhibiting paw swelling as other compounds assayed | statistically significant inhibition of knee degeneration | minimal effect | significant inhibition of hyperalgesic response | known to penetrate the blood brain barrier (BBB) | twice that of systemic levels | highly protein-bound | experienced adverse neurological effects |
